Assay results taken from ChEMBL document CHEMBL4507300 (2021).

Key:
[1] = molecular target: cAMP-dependent protein kinase catalytic subunit alpha (Homo sapiens) (UniProt P17612); details: Compound concentration 1000.0 nM
[2] = test system: Hepatocyte growth factor receptor (Homo sapiens), P08581 [Y1235D]; details: Compound concentration 1000.0 nM
[3] = test system: Tyrosine-protein kinase ABL1 (Homo sapiens), P00519 [Y253F]; details: Compound concentration 1000.0 nM
[4] = molecular target: Dual specificity protein kinase CLK3 (Homo sapiens) (UniProt P49761); details: Compound concentration 1000.0 nM
[5] = molecular target: Mitogen-activated protein kinase 6 (Homo sapiens) (UniProt Q16659); details: Compound concentration 1000.0 nM
[6] = molecular target: Casein kinase II subunit alpha' (Homo sapiens) (UniProt P19784); details: Compound concentration 1000.0 nM
[7] = molecular target: Rho-associated protein kinase 2 (Homo sapiens) (UniProt O75116); details: Compound concentration 1000.0 nM
[8] = molecular target: Membrane-associated tyrosine- and threonine-specific cdc2-inhibitory kinase (Homo sapiens) (UniProt Q99640); details: Compound concentration 1000.0 nM
[9] = molecular target: Phosphatidylinositol 5-phosphate 4-kinase type-2 beta (Homo sapiens) (UniProt P78356); details: Compound concentration 1000.0 nM
[10] = molecular target: Protein-tyrosine kinase 2-beta (Homo sapiens) (UniProt Q14289); details: Compound concentration 1000.0 nM
[11] = molecular target: RAC-alpha serine/threonine-protein kinase (Homo sapiens) (UniProt P31749); details: Compound concentration 1000.0 nM
[12] = molecular target: Tyrosine-protein kinase JAK1 (Homo sapiens) (UniProt P23458); details: Compound concentration 1000.0 nM
[13] = molecular target: Cyclin-dependent kinase 19 (Homo sapiens) (UniProt Q9BWU1); details: Compound concentration 1000.0 nM
[14] = molecular target: Ephrin type-B receptor 4 (Homo sapiens) (UniProt P54760); details: Compound concentration 1000.0 nM
[15] = molecular target: Epidermal growth factor receptor (Homo sapiens) (UniProt P00533); details: Compound concentration 1000.0 nM
[16] = molecular target: Uncharacterized serine/threonine-protein kinase SBK3 (Homo sapiens) (UniProt P0C264); details: Compound concentration 1000.0 nM
[17] = test system: Phosphatidylinositol 4,5-bisphosphate 3-kinase catalytic subunit alpha isoform (Homo sapiens), P42336 [H1047L]; details: Compound concentration 1000.0 nM
Phosphatidylinositol 4,5-bisphosphate 3-kinase catalytic subunit alpha isoform (Homo sapiens), P42336 [H1047L], sequence (P42336 whole entry H1047L, canonical isoform): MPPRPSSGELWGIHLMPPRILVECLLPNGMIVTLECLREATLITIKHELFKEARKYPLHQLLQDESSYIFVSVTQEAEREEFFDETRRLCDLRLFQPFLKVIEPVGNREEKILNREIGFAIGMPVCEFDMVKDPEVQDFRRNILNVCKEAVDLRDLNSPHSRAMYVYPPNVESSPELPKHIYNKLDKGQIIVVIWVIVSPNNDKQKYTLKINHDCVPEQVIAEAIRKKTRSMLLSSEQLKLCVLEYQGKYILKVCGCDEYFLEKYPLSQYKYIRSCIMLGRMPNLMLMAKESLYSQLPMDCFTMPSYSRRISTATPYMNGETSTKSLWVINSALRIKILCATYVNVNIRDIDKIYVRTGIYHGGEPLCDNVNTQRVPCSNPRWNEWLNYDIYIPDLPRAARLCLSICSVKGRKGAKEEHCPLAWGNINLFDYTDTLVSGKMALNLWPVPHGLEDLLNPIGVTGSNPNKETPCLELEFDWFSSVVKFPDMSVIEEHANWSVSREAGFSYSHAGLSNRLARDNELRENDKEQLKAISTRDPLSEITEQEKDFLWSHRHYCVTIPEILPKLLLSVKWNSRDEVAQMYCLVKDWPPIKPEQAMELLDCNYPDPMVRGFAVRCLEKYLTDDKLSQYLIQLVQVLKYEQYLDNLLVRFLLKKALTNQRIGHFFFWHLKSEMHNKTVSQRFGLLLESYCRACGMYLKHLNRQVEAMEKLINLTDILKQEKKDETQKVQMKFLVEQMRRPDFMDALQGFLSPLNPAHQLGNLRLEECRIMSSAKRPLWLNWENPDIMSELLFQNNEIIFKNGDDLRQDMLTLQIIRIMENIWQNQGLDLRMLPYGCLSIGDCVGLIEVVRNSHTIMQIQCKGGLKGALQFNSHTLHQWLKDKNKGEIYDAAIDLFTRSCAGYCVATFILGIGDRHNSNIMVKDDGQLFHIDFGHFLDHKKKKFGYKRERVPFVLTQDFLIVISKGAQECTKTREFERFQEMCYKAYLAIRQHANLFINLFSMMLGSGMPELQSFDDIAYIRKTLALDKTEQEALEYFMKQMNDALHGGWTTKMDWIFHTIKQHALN

[18] = test system: Tyrosine-protein kinase ABL1 (Homo sapiens), P00519 [H396P]; details: Compound concentration 1000.0 nM
[19] = test system: ALK tyrosine kinase receptor (Homo sapiens), Q9UM73 [L1196M]; details: Compound concentration 1000.0 nM
[20] = molecular target: Calcium/calmodulin-dependent protein kinase kinase 2 (Homo sapiens) (UniProt Q96RR4); details: Compound concentration 1000.0 nM
[21] = molecular target: Mitogen-activated protein kinase 4 (Homo sapiens) (UniProt P31152); details: Compound concentration 1000.0 nM
[22] = test system: Epidermal growth factor receptor (Homo sapiens), P00533 [G719S]; details: Compound concentration 1000.0 nM
[23] = molecular target: Ribosomal protein S6 kinase alpha-6 (Homo sapiens) (UniProt Q9UK32); details: Compound concentration 1000.0 nM
[24] = molecular target: Serine/threonine-protein kinase 36 (Homo sapiens) (UniProt Q9NRP7); details: Compound concentration 1000.0 nM
[25] = molecular target: Mitogen-activated protein kinase 7 (Homo sapiens) (UniProt Q13164); details: Compound concentration 1000.0 nM
[26] = molecular target: Dual specificity tyrosine-phosphorylation-regulated kinase 1A (Homo sapiens) (UniProt Q13627); details: Compound concentration 1000.0 nM
[27] = molecular target: Myotonin-protein kinase (Homo sapiens) (UniProt Q09013); details: Compound concentration 1000.0 nM
[28] = test system: Proto-oncogene tyrosine-protein kinase receptor Ret (Homo sapiens), P07949 [V804L]; details: Compound concentration 1000.0 nM
Proto-oncogene tyrosine-protein kinase receptor Ret (Homo sapiens), P07949 [V804L], sequence (P07949 whole entry V804L): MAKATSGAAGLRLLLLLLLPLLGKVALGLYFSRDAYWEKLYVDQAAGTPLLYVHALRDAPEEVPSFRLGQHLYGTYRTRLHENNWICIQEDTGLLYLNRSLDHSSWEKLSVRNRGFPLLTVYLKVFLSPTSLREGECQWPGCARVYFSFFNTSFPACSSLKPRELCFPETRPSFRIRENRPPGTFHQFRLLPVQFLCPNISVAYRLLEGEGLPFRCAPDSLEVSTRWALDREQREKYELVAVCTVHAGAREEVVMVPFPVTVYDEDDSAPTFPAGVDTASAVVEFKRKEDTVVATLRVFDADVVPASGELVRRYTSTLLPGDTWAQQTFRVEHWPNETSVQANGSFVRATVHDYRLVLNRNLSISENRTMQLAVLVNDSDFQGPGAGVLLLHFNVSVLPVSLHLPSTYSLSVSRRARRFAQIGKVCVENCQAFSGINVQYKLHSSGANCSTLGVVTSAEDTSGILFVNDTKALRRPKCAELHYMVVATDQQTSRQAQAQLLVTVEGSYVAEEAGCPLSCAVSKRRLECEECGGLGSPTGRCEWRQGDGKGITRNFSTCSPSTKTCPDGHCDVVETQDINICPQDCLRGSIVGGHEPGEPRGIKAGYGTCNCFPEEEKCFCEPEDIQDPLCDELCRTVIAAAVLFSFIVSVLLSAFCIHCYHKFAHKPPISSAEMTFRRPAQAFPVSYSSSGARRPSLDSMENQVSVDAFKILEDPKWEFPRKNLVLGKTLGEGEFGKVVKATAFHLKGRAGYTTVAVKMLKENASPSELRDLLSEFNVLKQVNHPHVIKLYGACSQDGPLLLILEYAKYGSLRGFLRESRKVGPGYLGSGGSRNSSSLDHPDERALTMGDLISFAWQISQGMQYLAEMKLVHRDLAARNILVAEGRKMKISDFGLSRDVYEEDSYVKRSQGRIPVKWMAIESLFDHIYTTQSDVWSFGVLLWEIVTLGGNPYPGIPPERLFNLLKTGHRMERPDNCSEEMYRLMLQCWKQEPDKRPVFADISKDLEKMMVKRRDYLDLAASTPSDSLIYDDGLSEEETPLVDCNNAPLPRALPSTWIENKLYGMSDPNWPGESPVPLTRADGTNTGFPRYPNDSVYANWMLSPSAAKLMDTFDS

[29] = molecular target: Transient receptor potential cation channel subfamily M member 6 (Homo sapiens) (UniProt Q9BX84); details: Compound concentration 1000.0 nM
[30] = molecular target: Protein kinase C eta type (Homo sapiens) (UniProt P24723); details: Compound concentration 1000.0 nM
[31] = test system: Phosphatidylinositol 4,5-bisphosphate 3-kinase catalytic subunit alpha isoform (Homo sapiens), P42336 [M1043I]; details: Compound concentration 1000.0 nM
[32] = molecular target: MAP kinase-interacting serine/threonine-protein kinase 2 (Homo sapiens) (UniProt Q9HBH9); details: Compound concentration 1000.0 nM
[33] = molecular target: Mu-type opioid receptor (Homo sapiens) (UniProt P35372); details: Compound concentration 10.0 uM
[34] = test system: Receptor-type tyrosine-protein kinase FLT3 (Homo sapiens), P36888 [D835H]; details: Compound concentration 1000.0 nM
[35] = molecular target: Phosphorylase b kinase regulatory subunit alpha, liver isoform (Homo sapiens) (UniProt P46019); details: Compound concentration 1000.0 nM
Phosphorylase b kinase regulatory subunit alpha, liver isoform (Homo sapiens), sequence (P46019 whole entry, canonical isoform): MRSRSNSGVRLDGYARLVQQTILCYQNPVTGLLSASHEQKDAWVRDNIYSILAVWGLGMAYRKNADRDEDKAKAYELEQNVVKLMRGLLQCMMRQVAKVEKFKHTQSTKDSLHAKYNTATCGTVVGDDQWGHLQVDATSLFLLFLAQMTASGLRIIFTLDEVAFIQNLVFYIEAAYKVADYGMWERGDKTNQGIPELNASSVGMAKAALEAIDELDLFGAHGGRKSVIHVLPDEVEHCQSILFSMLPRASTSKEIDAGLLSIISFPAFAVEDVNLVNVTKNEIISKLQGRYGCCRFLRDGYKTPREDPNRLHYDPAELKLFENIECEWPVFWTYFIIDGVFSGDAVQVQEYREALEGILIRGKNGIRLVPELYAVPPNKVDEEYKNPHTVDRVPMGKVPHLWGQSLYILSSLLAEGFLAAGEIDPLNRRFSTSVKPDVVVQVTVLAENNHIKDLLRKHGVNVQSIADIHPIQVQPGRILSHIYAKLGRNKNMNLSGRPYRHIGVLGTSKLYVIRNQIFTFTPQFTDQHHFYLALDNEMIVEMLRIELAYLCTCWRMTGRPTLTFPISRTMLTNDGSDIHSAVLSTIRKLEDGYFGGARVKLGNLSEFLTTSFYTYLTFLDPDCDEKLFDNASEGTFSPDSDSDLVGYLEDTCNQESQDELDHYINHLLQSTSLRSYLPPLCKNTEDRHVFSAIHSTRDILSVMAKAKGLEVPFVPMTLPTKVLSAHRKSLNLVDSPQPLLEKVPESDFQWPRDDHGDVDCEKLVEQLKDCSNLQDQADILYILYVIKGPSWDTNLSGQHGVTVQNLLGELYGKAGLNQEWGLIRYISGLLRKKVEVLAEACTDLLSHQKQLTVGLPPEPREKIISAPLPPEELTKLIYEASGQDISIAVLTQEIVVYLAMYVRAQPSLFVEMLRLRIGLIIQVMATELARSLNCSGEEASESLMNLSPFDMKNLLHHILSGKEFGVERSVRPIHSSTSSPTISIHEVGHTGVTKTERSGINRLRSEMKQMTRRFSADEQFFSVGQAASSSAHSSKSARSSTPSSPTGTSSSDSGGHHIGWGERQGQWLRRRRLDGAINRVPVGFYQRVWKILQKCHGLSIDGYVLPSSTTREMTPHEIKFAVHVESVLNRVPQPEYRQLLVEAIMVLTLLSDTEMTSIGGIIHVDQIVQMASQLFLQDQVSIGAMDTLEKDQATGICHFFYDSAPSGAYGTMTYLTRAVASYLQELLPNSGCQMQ

[36] = molecular target: Serine/threonine-protein kinase ULK3 (Homo sapiens) (UniProt Q6PHR2); details: Compound concentration 1000.0 nM
[37] = molecular target: Ribosomal protein S6 kinase alpha-3 (Homo sapiens) (UniProt P51812); details: Compound concentration 1000.0 nM
[38] = molecular target: Mitogen-activated protein kinase 9 (Homo sapiens) (UniProt P45984); details: Compound concentration 1000.0 nM
[39] = molecular target: Serine/threonine-protein kinase 32A (Homo sapiens) (UniProt Q8WU08); details: Compound concentration 1000.0 nM
[40] = molecular target: Mitogen-activated protein kinase kinase kinase 5 (Homo sapiens) (UniProt Q99683); details: Compound concentration 1000.0 nM
[41] = molecular target: Discoidin domain-containing receptor 2 (Homo sapiens) (UniProt Q16832); details: Compound concentration 1000.0 nM
[42] = test system: Mast/stem cell growth factor receptor Kit (Homo sapiens), P10721 [V559D,T670I]; details: Compound concentration 1000.0 nM
[43] = test system: Phosphatidylinositol 4,5-bisphosphate 3-kinase catalytic subunit alpha isoform (Homo sapiens), P42336 [E542K]; details: Compound concentration 1000.0 nM
Phosphatidylinositol 4,5-bisphosphate 3-kinase catalytic subunit alpha isoform (Homo sapiens), P42336 [E542K], sequence (P42336 whole entry E542K, canonical isoform): as the sequence (P42336 whole entry H1047L, canonical isoform) above, with E542K, L1047H counted along it

[44] = molecular target: Tyrosine-protein kinase Srms (Homo sapiens) (UniProt Q9H3Y6); details: Compound concentration 1000.0 nM
Tyrosine-protein kinase Srms (Homo sapiens), sequence (Q9H3Y6 whole entry): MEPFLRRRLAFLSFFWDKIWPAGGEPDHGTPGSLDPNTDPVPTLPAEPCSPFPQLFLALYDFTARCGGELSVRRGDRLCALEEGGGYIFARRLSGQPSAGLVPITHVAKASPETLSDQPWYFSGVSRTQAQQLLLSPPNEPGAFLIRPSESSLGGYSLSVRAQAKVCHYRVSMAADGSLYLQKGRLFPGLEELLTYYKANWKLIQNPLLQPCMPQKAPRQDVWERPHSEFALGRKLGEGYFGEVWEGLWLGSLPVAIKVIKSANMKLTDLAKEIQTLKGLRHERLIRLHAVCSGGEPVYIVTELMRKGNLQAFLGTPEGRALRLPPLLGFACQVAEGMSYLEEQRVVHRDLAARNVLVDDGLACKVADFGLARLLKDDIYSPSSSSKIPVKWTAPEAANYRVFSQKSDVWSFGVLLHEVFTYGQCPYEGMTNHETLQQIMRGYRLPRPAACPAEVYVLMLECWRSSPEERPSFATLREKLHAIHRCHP

[45] = molecular target: Receptor-interacting serine/threonine-protein kinase 4 (Homo sapiens) (UniProt P57078); details: Compound concentration 1000.0 nM

COc1cccc(CNC(=O)c2nc3scc(COCc4ccc(C(=O)O)cc4)c3c(=O)[nH]2)c1 [T-26c]
inactive: residual activity [1] 100% | residual activity [2] 100% | residual activity [3] 84.6% | residual activity [4] 100% | residual activity [5] 99.9% | residual activity [6] 79.4% | residual activity [7] 69.1% | residual activity [8] 88% | residual activity [9] 100% | residual activity [10] 85.3% | residual activity [11] 99.9% | residual activity [12] 93.9% | residual activity [13] 100% | residual activity [14] 89.4% | residual activity [15] 69.3% | residual activity [16] 100% | residual activity [17] 100% | residual activity [18] 86.4% | residual activity [19] 94.8% | residual activity [20] 100% | residual activity [21] 80% | residual activity [22] 100% | residual activity [23] 63.5% | residual activity [24] 100% | residual activity [25] 99.3% | residual activity [26] 89.5% | residual activity [27] 85.4% | residual activity [28] 76.7% | residual activity [29] 81.8% | residual activity [30] 83.7% | residual activity [31] 100% | residual activity [32] 73.2% | inhibition [33] -3.34% | residual activity [34] 92.9% | residual activity [35] 83.8% | residual activity [36] 76% | residual activity [37] 100% | residual activity [38] 97.1% | residual activity [39] 100% | residual activity [40] 97.8% | residual activity [41] 98.9% | residual activity [42] 100% | residual activity [43] 76.1% | residual activity [44] 78.3% | residual activity [45] 67.1%
